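Method: 48-hour compound exposure of cells in 96-well plates, five concentrations, linear interpolation of endpoints. GI50 marks 50% less growth.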 Activity calls are given as the source filed them. No stated cut-off is given here; in the data, active = GI50 up to about 1.1 µM and inactive = higher.
How the values were obtained:
Assay in all cases: NCI-60 cell line screen, 48 h
COLO 205 = system: COLO 205
DU-145 = system: DU-145
HL-60 = system: HL-60
HOP-62 = system: HOP-62
IGROV-1 = system: IGROV-1
KM12 = system: KM12
MDA-MB-435 = system: MDA-MB-435
Malme-3M = system: Malme-3M
NCI/ADR-RES = system: NCI/ADR-RES
OVCAR-4 = system: OVCAR-4
RPMI-8226 = system: RPMI-8226
RXF 393 = system: RXF 393
SF-295 = system: SF-295
SF-539 = system: SF-539
SK-MEL-5 = system: SK-MEL-5
SNB-19 = system: SNB-19
SNB-75 = system: SNB-75
SR = system: SR
TK-10 = system: TK-10
U-251 = system: U-251

Measured: GI50

O=C1NNC(=O)c2ccccc2SSc2ccccc2C(=O)NNC(=O)c2ccccc2SSc2ccccc21
inactive: COLO 205 17.2 µM | DU-145 21.4 µM | HL-60 6.7 µM | HOP-62 21.4 µM | IGROV-1 9.25 µM | KM12 22.5 µM | MDA-MB-435 39 µM | Malme-3M 15.6 µM | NCI/ADR-RES 17.8 µM | OVCAR-4 33.7 µM | RPMI-8226 34 µM | RXF 393 > 50 µM | SF-295 2.45 µM | SF-539 17.3 µM | SK-MEL-5 26.9 µM | SNB-19 25.9 µM | SNB-75 40.1 µM | SR 2.55 µM | TK-10 36.9 µM | U-251 17.3 µM

N#CC(c1ccccc1)(c1ccccc1)[C@@H](c1ccccc1)[C@H](Cc1ccccc1)NS(=O)(=O)c1ccccc1
inactive: COLO 205 > 100 µM | DU-145 > 100 µM | HL-60 4.17 µM | HOP-62 > 100 µM | IGROV-1 > 100 µM | KM12 > 100 µM | MDA-MB-435 > 100 µM | Malme-3M > 100 µM | NCI/ADR-RES > 100 µM | OVCAR-4 > 100 µM | RPMI-8226 10.3 µM | RXF 393 84.7 µM | SF-295 > 100 µM | SF-539 > 100 µM | SK-MEL-5 96.2 µM | SNB-19 > 100 µM | SNB-75 > 100 µM | SR 83.9 µM | TK-10 > 100 µM | U-251 > 100 µM

S=C(Nc1ccccc1)N(Cc1ccccc1)c1ccccc1
inactive: COLO 205 23.3 µM | DU-145 6.75 µM | HL-60 27.8 µM | HOP-62 49.3 µM | IGROV-1 44.4 µM | KM12 21.2 µM | MDA-MB-435 20.3 µM | Malme-3M 11.2 µM | NCI/ADR-RES > 100 µM | OVCAR-4 23.7 µM | RPMI-8226 34.9 µM | RXF 393 22.6 µM | SF-295 34.3 µM | SF-539 17.7 µM | SK-MEL-5 13.8 µM | SNB-19 80.2 µM | SNB-75 22.5 µM | SR 20.5 µM | TK-10 29.7 µM | U-251 42.6 µM

CCOP(=O)(OCC)C(Nc1ccc(Br)cc1)c1cccc([N+](=O)[O-])c1 (stereo not given)
inactive: COLO 205 13.2 µM | DU-145 32.8 µM | HL-60 20 µM | HOP-62 17.5 µM | IGROV-1 22.1 µM | KM12 12.6 µM | MDA-MB-435 16.1 µM | Malme-3M 18.2 µM | NCI/ADR-RES 13.5 µM | OVCAR-4 21.4 µM | RPMI-8226 28.2 µM | RXF 393 14.4 µM | SF-295 12.9 µM | SF-539 19.6 µM | SK-MEL-5 14.6 µM | SNB-19 24.9 µM | SNB-75 29.2 µM | SR 18.1 µM | TK-10 30.5 µM | U-251 18.2 µM

O=C(Cn1ccnc1[N+](=O)[O-])NCCO [ETANIDAZOLE]
inactive: COLO 205 > 100 µM | DU-145 > 100 µM | HL-60 > 100 µM | HOP-62 > 100 µM | IGROV-1 > 100 µM | KM12 > 100 µM | MDA-MB-435 > 100 µM | Malme-3M > 100 µM | NCI/ADR-RES > 100 µM | OVCAR-4 > 100 µM | RPMI-8226 > 100 µM | RXF 393 > 100 µM | SF-295 > 100 µM | SF-539 > 100 µM | SK-MEL-5 > 100 µM | SNB-19 > 100 µM | SNB-75 > 100 µM | SR > 100 µM | TK-10 > 100 µM | U-251 > 100 µM

CCN(CC)CC1CCCCN1CC(=O)N1c2ccccc2C(=O)Nc2cccnc21 (stereo not given) [OTENZEPAD]
inactive: COLO 205 23.2 µM | DU-145 > 100 µM | HL-60 17.4 µM | HOP-62 34.7 µM | IGROV-1 > 100 µM | KM12 66.7 µM | MDA-MB-435 63 µM | Malme-3M > 100 µM | NCI/ADR-RES 20.8 µM | OVCAR-4 38.9 µM | RPMI-8226 35.6 µM | RXF 393 > 100 µM | SF-295 > 100 µM | SF-539 40.6 µM | SK-MEL-5 > 100 µM | SNB-19 > 100 µM | SNB-75 99.1 µM | SR 28.1 µM | TK-10 > 100 µM | U-251 60.5 µM

— ChEMBL document CHEMBL1201862, “PubChem BioAssay data set” (2004)
